Results as given in US11096865B2, “Preservative removal from eye drops” (TearClear Corp., priority 2019, dated 2021).

Assay: 30 day drop test, API retention after dropper tip packed with OxPO
Type: physicochemical
Settings: for API concentration in drops: tip packed with OxHDPE A-C 395, 125-250 μm, acid washed
Method: To 60.0 g of ultrapure water was added 0.090 g hydroxyethyl cellulose (Natrosol 250H) and the solution was stirred overnight to dissolve. Subsequently, 0.176 g sodium citrate dihydrate and 0.960 g mannitol were added and the mixture was stirred until completely dissolved. 1.37 g Dorzolamide Hydrochloride, 0.420 g Timolol Maleate and 0.045 g of a 10% aqueous solution of BAK were added and incorporated. The pH was adjusted to 5.65 with 0.01N NaOH solution. The final nominal concentrations are reported below.
An empty dropper tip equipped with a 25 μm filter at the tip exit was packed with approximately […] of OxPO and the backing filter was attached to retain the OxPO packing in place. The weight of the OxPO packing was recorded. The packed tip was then inserted into the neck of an 8 ml dropper bottle containing 5 ml of the API/BAK test solution.
5 ml of the formulation described above containing nominally 5.0 mg/ml Timolol, 20.0 mg/ml Dorzolamide and 75 μg/ml BAK was loaded into six eyedropper bottles packed with OxHDPE (A-C 395, 125-250 μm, acid washed) as described above. Drops were obtained from each bottle twice a day (AM and PM 8 hours apart) and analyzed by HPLC for API and BAK.

SMILES: CCN[C@H]1C[C@H](C)S(=O)(=O)c2sc(S(N)(=O)=O)cc21 [Dorzolamide]
- API concentration in drops (Day 1A): 20.0 mg/mL
- API concentration in drops (Day 1P): 20.1 mg/mL
- API concentration in drops (Day 2A): 19.2 mg/mL
- API concentration in drops (Day 2P): 19.4 mg/mL
- API concentration in drops (Day 3A): 19.5 mg/mL
- API concentration in drops (Day 3P): 19.6 mg/mL
- API concentration in drops (Day 4A): 19.3 mg/mL
- API concentration in drops (Day 4P): 19.7 mg/mL
- API concentration in drops (Day 5A): 19.7 mg/mL
- API concentration in drops (Day 5P): 19.8 mg/mL
- API concentration in drops (Day 6A): 19.8 mg/mL
- API concentration in drops (Day 6P): 20.2 mg/mL
- API concentration in drops (Day 7A): 20.3 mg/mL
- API concentration in drops (Day 7P): 20.3 mg/mL
- API concentration in drops (Day 8A): 20.1 mg/mL
- API concentration in drops (Day 8P): 20.2 mg/mL
- API concentration in drops (Day 9A): 19.8 mg/mL
- API concentration in drops (Day 9P): 19.5 mg/mL
- API concentration in drops (Day 10A): 19.8 mg/mL
- API concentration in drops (Day 10P): 20.1 mg/mL
- API concentration in drops (Day 11A): 19.9 mg/mL
- API concentration in drops (Day 11P): 19.9 mg/mL
- API concentration in drops (Day 12A): 19.8 mg/mL
- API concentration in drops (Day 12P): 19.9 mg/mL
- API concentration in drops (Day 13A): 19.9 mg/mL
- API concentration in drops (Day 13P): 19.9 mg/mL
- API concentration in drops (Day 14A): 19.7 mg/mL
- API concentration in drops (Day 14P): 20.0 mg/mL
- API concentration in drops (Day 15A): 19.8 mg/mL
- API concentration in drops (Day 15P): 19.9 mg/mL
- API concentration in drops (Day 16A): 19.5 mg/mL
- API concentration in drops (Day 16P): 19.8 mg/mL
- API concentration in drops (Day 17A): 19.4 mg/mL
- API concentration in drops (Day 17P): 19.4 mg/mL
- API concentration in drops (Day 18A): 19.7 mg/mL
- API concentration in drops (Day 18P): 19.6 mg/mL
- API concentration in drops (Day 19A): 19.2 mg/mL
- API concentration in drops (Day 19P): 19.5 mg/mL
- API concentration in drops (Day 20A): 19.6 mg/mL
- API concentration in drops (Day 20P): 19.7 mg/mL
- API concentration in drops (Day 21A): 19.6 mg/mL
- API concentration in drops (Day 21P): 19.7 mg/mL
- API concentration in drops (Day 22A): 20.0 mg/mL
- API concentration in drops (Day 22P): 19.5 mg/mL
- API concentration in drops (Day 23A): 19.8 mg/mL
- API concentration in drops (Day 23P): 19.8 mg/mL
- API concentration in drops (Day 24A): 19.8 mg/mL
- API concentration in drops (Day 24P): 19.8 mg/mL
- API concentration in drops (Day 25A): 19.6 mg/mL
- API concentration in drops (Day 25P): 19.7 mg/mL
- API concentration in drops (Day 26A): 20.2 mg/mL
- API concentration in drops (Day 26P): 20.1 mg/mL
- API concentration in drops (Day 27A): 20.1 mg/mL
- API concentration in drops (Day 27P): 20.1 mg/mL
- API concentration in drops (Day 28A): 20.1 mg/mL
- API concentration in drops (Day 28P): 19.9 mg/mL
- API concentration in drops (Day 29A): 19.6 mg/mL
- API concentration in drops (Day 29P): 19.6 mg/mL
- API concentration in drops (Day 30A): 20.1 mg/mL
- API concentration in drops (Day 30P): 20.1 mg/mL
- API concentration (Initial formulation): 21.0 (mg/ml)
